# In patent publication US12357596B2, “Compounds for prevention and treatment of obesity and related disorders” (ABREXA PHARMACEUTICALS, INC., priority 2019, dated 2025):
# Assay: 28-day once-daily oral gavage toxicity study with 14-day recovery (body weight, food consumption, clinical and anatomic pathology)
# Format: in vivo
# Conditions: for Decrease of group mean food consumption compared to Group 1 controls: Days 21 to 28
# Experimental: J147 or vehicle was administered once daily to Sprague-Dawley rats via oral gavage for 28 consecutive days at a daily dose of 0, 30, 100 or 300 mg/kg. J174 was prepared in a vehicle formulation comprising 5% ethanol, 5% DMSO and 90% corn oil (v/v/v). Certified rodent diet and water was available ad libitum. Groups 1-4 contained 10 animals/sex/group. Groups 1 (control) and 4 (high dose) also included an additional 5 animals/sex/group for use as recovery animals. The recovery animals were maintained on study for a 14-day postdosing recovery period. Animals in Groups 1-4 were monitored for morbidity and mortality, clinical signs, detailed clinical observations, body weight, food consumption, ophthalmologic parameters, neurobehavioral assessment consisting of a Functional Observational Battery (FOB) and a motor activity test, hematology, coagulation, serum chemistry, and urinalysis parameters. Postmortem assessment included necropsy, measurement of selected organ weights, and microscopic evaluation of a standard set of tissues. Plasma samples for bioanalysis were collected on Days 1 and 28 from satellite toxicokinetic animals in Groups 5 through 8. Animals in these groups were euthanized following the last blood sampling and carcasses were discarded without examination. The study protocol is shown below in Table 1.
# [1] = male rats, 30 mg/kg/day, Day 14 → 21
# [2] = male rats, 30 mg/kg/day, Day 21 → 28
# [3] = male rats, 30 mg/kg/day, Day −1 → 7
# [4] = male rats, 100 mg/kg/day, Day 7 → 14
# [5] = male rats, 100 mg/kg/day, Day 14 → 21
# [6] = male rats, 100 mg/kg/day, Day 21 → 28
# [7] = male rats, 100 mg/kg/day, Day 28
# [8] = male rats, 100 mg/kg/day, Day −1 → 7
# [9] = male rats, 300 mg/kg/day, Day 7 → 14
# [10] = male rats, 300 mg/kg/day, Day 14 → 21
# [11] = male rats, 300 mg/kg/day, Day 21 → 28
# [12] = male rats, 300 mg/kg/day, Day 28
# [13] = male rats, 300 mg/kg/day, Day −1 → 7
# [14] = rats, both sexes, 300 mg/kg/day
# [15] = rats, both sexes, 100 and 300 mg/kg/day
structure (smiles),measurement,setting,value
COc1cccc(/C=N/N(C(=O)C(F)(F)F)c2ccc(C)cc2C)c1 [J147],Mean Bodyweight Gain,[1],39.61 g
same,Mean Food Consumption,[1],25.03
same,Mean Bodyweight,"male rats, 30 mg/kg/day, Day 21",430.90 g
same,Mean Bodyweight Gain,[2],34.51 g
same,Mean Food Consumption,[2],25.13
same,Mean Bodyweight,"male rats, 30 mg/kg/day, Day 28",465.41 g
same,Mean Bodyweight,"male rats, 30 mg/kg/day, Day −1 (pre-dose)",285.27 g
same,Mean Bodyweight Gain,[3],53.64 g
same,Mean Food Consumption,[3],23.90
same,Mean Bodyweight Gain,"male rats, 30 mg/kg/day, Day −1 → 28",180.14 g
same,Mean Bodyweight,"male rats, 30 mg/kg/day, Day −2 (pre-dose)",278.60 g
same,Mean Bodyweight,"male rats, 100 mg/kg/day, Day 7",335.34 g
same,Mean Bodyweight Gain,[4],41.14 d^2 g
same,Mean Food Consumption,[4],21.47 dd^2
same,Mean Bodyweight,"male rats, 100 mg/kg/day, Day 14",376.48 g
same,Mean Bodyweight Gain,[5],33.50 g
same,Mean Food Consumption,[5],23.65
same,Mean Bodyweight,"male rats, 100 mg/kg/day, Day 21",409.98 g
same,Mean Bodyweight Gain,[6],26.89 g
same,Mean Food Consumption,[6],23.73
same,Decrease of group mean body weight compared to Group 1 controls,[7],5.9%
same,Mean Bodyweight,[7],436.87 g
same,Mean Bodyweight,"male rats, 100 mg/kg/day, Day −1 (pre-dose)",286.67 g
same,Mean Bodyweight Gain,[8],48.67 g
same,Mean Food Consumption,[8],23.68
same,Mean Bodyweight Gain,"male rats, 100 mg/kg/day, Day −1 → 28",150.20 g
same,Mean Bodyweight,"male rats, 100 mg/kg/day, Day −2 (pre-dose)",278.57 g
same,Decrease of group mean food consumption compared to Group 1 controls,"male rats, 100 mg/kg/day",4.9%
same,Levels of urinary ketones,"male rats, 300 mg/kg/day",increased
same,Mean Food Consumption,"male rats, 300 mg/kg/day for 28 days, Day 28 → 35 (recovery)",26.98
same,Mean Bodyweight Gain,"male rats, 300 mg/kg/day for 28 days, Day 28 → 42 (recovery)",50.60 g
same,Mean Bodyweight,"male rats, 300 mg/kg/day for 28 days, Day 35 (recovery)",415.68 dd^3 g
same,Mean Food Consumption,"male rats, 300 mg/kg/day for 28 days, Day 35 → 42 (recovery)",28.99
same,Mean Bodyweight,"male rats, 300 mg/kg/day for 28 days, Day 42 (recovery)",446.14 d^4 g
same,Mean Bodyweight,"male rats, 300 mg/kg/day, Day 7",321.93 dd^2 g
same,Mean Bodyweight Gain,[9],28.89 dd^3 g
same,Mean Food Consumption,[9],20.24 dd^2
same,Mean Bodyweight,"male rats, 300 mg/kg/day, Day 14",350.83 dd^2 g
same,Mean Bodyweight Gain,[10],21.21 dd^3 g
same,Mean Food Consumption,[10],21.50 dd^2
same,Mean Bodyweight,"male rats, 300 mg/kg/day, Day 21",372.04 dd^2 g
same,Mean Bodyweight Gain,[11],16.71 dd^3 g
same,Mean Food Consumption,[11],20.78 dd^2
same,Decrease of group mean body weight compared to Group 1 controls,[12],16.2%
same,Mean Bodyweight,[12],388.75 dd^2 g
same,Mean Bodyweight,"male rats, 300 mg/kg/day, Day −1 (pre-dose)",287.50 g
same,Mean Bodyweight Gain,[13],34.43 dd^3 g
same,Mean Food Consumption,[13],19.83 dd^2
same,Mean Bodyweight Gain,"male rats, 300 mg/kg/day, Day −1 → 28",101.25 dd^3 g
same,Mean Bodyweight,"male rats, 300 mg/kg/day, Day −2 (pre-dose)",278.97 g
same,Decrease of group mean food consumption compared to Group 1 controls,"male rats, 300 mg/kg/day",16.7%
same,Mean serum triglyceride concentrations,"male rats, 100 and 300 mg/kg/day",Decreased
same,Group mean weight gain from Day −1 to 28,"male rats, Group 2 (30 mg/kg/day)",180 grams
same,Group mean weight gain from Day −1 to 28,"male rats, Group 3 (100 mg/kg/day)",150 grams
same,Group mean weight gain from Day −1 to 28,"male rats, Group 4 (300 mg/kg/day)",101 grams
same,Effects on serum triglyceride concentrations and red cell mass at the end of the 14-day recovery period,rats previously administered 300 mg/kg/day for 28 days,persisted
same,Alterations considered related to test article administration,"rats, 30 mg/kg/day",no alterations
same,"Organ weight, macroscopic or microscopic findings after recovery","rats, 300 mg/kg/day, Day 43 following 2-week treatment-free recovery","no J147-related organ weight, macroscopic or microscopic findings"
same,Recovery of body weight and body weight gain,"rats, 14-day recovery period",Full recovery
same,Motor activity portion of the Functional Observational Battery (FOB),"rats, Day 1, males at all dose levels, females at 100 and 300 mg/kg/day, not considered adverse",general decrease in activity
same,Subacute perivascular inflammation in the liver (microscopic),[14],noted
same,Thymic lymphoid depletion,[14],noted
same,lowest-observed-adverse-effect-level (LOAEL),"rats, both sexes, 28-day oral gavage",100 mg/kg/day
same,"Body weight, body weight gain, and food consumption",[15],decreased
same,Food consumption compared to Group 1 controls,[15],decreased
same,Group mean thymus weights,[15],Decreases
same,Hepatocellular hypertrophy (microscopic),[15],seen
same,Prothrombin time,"rats, both sexes, all dose levels",decreased
same,Mean platelet and reticulocyte counts,"rats, end of 28-day treatment, all dose levels, both sexes",increased
same,"Mean red blood cell counts, hematocrit, and hemoglobin values","rats, end of 28-day treatment, males at all dose levels, females at 100 and 300 mg/kg/day",decreased
same,Terminal necropsy findings,"rats, one or two animals at 300 mg/kg/day",enlarged liver and small thymus
same,J147-related effects on body weight and food consumption following cessation of treatment,"rats, recovery period",reversible
same,Noteworthy clinical observations during the 28-day treatment period,"rats, some animals of both sexes, 300 mg/kg/day",soft feces
same,Incidence of single cell necrosis of acinar cells in the pancreas,"rats, both sexes at 300 mg/kg/day, males at 100 mg/kg/day",increased
same,Mean serum glucose concentrations,"rats, males at 100 mg/kg/day, both sexes at 300 mg/kg/day",Decreased
same,Group mean liver weights,"rats, males at all dose levels, females at 100 and 300 mg/kg/day",increased
